Source: patent US6713269B2, “Methods for identifying potential therapeutic agents for treatment of osteoporosis using mitogenic indices” (co.don Aktiengesellschaft, priority 1995, dated 2004)

Tested on: human osteoblast precursor cells
Assay: Cell proliferation rate under the influence of growth factors, using bromodeoxyuridine incorporation (BrdU incorporation)
Format: cell-based
Details: 54 h incubation + 18 h BrdU labelling, OD at 405 nm
Experimental: 3,000 osteoblastic cells from fractions t1 to 2 up to the second passage, recovered from osteoporotic patients (OP cells), per well of a 96-well microwell plate were incubated in the presence of 10% FCS and 10% inactivated human control serum in a cell culture medium (α-MEM and HAM-S F12 medium […]) for 48 h, 120 h and 192 h. In parallel, 3,000 osteoblastic cells from non-osteoporotic patients were incubated under the same conditions. The number of intact cells was determined by means of trypan blue staining and counting in a counting chamber. 4. Determination of the cell proliferation rate under the influence of the three growth factors 1, 2 and 3 using bromodeoxyuridine incorporation (BrdU incorporation) Growth factor 1 =TGF-β2
Cells from fraction 1 and/or 2 of each punched-out bone piece up to the 2nd passage were used in the proliferation test.
3 ×10^3 cells from the first and/or second passage per well of a 96-well plate and 200 μl of medium were used.
The cells were cultivated for three days under the conditions previously described and subsequently cultivated further for one day in medium with no serum until subconfluence was reached.
Thereafter, the three growth factors 1, 2 and 3 were added to the cells at four different final concentrations (100, 10, 1, and 0.1 ng/ml medium).
Cells in a medium containing 10% FKS and in a medium containing 5% Ultroser served as controls.
Triplets were set up for all concentrations and controls.
Six wells including cells, to which no bromodeoxyuridine had been added during the proliferation test served as blank controls.
After 54 hours of incubation with the growth factors, the proliferation test (5-Bromo-2′-deoxyuridine Labeling and Detection Kit III by Boehringer Mannheim) was initiated by adding 20 μl of labelling solution diluted 1:90 in 1% BSA medium and subsequent incubation for 18 hours.
The proliferation test was conducted according to the manufacturer's instructions.
Evaluation of the proliferation test was effected by measuring the optical density (OD) at 405 nm in an ELISA reader. After 60 minutes of color development, the absorbance was measured 12 times at intervals of 5 minutes.

Substance	Absorbance mean value (0.1 ng/ml medium)	Absorbance mean value (1 ng/ml medium)	Absorbance mean value (10 ng/ml medium)	Absorbance mean value (100 ng/ml medium)
IGF I: protein growth factor 2 (insulin-like growth factor I)	0.151	0.148	0.140	0.140
IGF II: protein growth factor 3 (insulin-like growth factor II)	0.148	0.150	0.139	0.140
